According to ChEMBL document CHEMBL2380251, “Antiproliferative activity of 2,3-disubstituted indoles toward apoptosis-resistant cancers cells” (2013):
The source made the active and inactive calls. The calls are words filed in the database; no cut-off is given here.

Assays:
A549 [1] = assay: Growth inhibition of apoptosis-resistance human A549 cells after 72 hrs by MTT assay; assay type: functional; details: A549, 72 h
SK-MEL-28 [2] = assay: Growth inhibition of apoptosis-resistance human SK-MEL-28 cells after 72 hrs by MTT assay; assay type: functional; details: SK-MEL-28, 72 h
B16-F10 = assay: Growth inhibition of apoptosis-resistance mouse B16F10 cells after 72 hrs by MTT assay; assay type: functional; details: B16-F10, 72 h
[3] = Growth inhibition of apoptosis-resistance human U373 cells after 72 hrs by MTT assay; assay type: functional, U-373MG ATCC; details: U373 MG
Hs 683 = assay: Growth inhibition of apoptosis-sensitive human Hs 683 cells after 72 hrs by MTT assay; assay type: functional; details: Hs 683, 72 h
SK-MEL-28 [4] = assay: Cytostatic activity against apoptosis-resistance human SK-MEL-28 cells assessed as cell growth at GI50 after 72 hrs by phase contrast microscopic analysis relative to control; assay type: functional
A549 [5] = assay: Induction of apoptosis in apoptosis-resistance human A549 cells at GI50 after 72 hrs by phase contrast microscopic analysis; assay type: functional, cell-based
SK-MEL-28 [6] = assay: Induction of apoptosis in apoptosis-resistance human SK-MEL-28 cells at GI50 after 72 hrs by phase contrast microscopic analysis; assay type: functional, cell-based
SK-MEL-28 [7] = assay: Induction of membrane permeabilization in apoptosis-resistance human SK-MEL-28 cells at GI50 after 72 hrs by propidium iodide staining-based flow cytometric analysis; assay type: functional, cell-based
A549 [8] = assay: Induction of membrane permeabilization in apoptosis-resistance human A549 cells at GI50 after 72 hrs by propidium iodide staining-based flow cytometric analysis; assay type: functional, cell-based
A549 [9] = assay: Cytostatic activity against apoptosis-resistance human A549 cells assessed as cell growth at GI50 after 72 hrs by phase contrast microscopic analysis relative to control; assay type: functional

GI50 (A549 [1]) [µM]	GI50 (SK-MEL-28 [2]) [µM]	GI50 (B16-F10) [µM]	SMILES	GI50 [3] [µM]	GI50 (Hs 683) [µM]	Activity (SK-MEL-28 [4]) [%]	Activity (A549 [5])	Activity (SK-MEL-28 [6])	Activity (SK-MEL-28 [7])	Activity (A549 [8])	Activity (A549 [9]) [%]
24	28	29	OC1CCCN(C(=S)Sc2c(-c3ccc(Br)cc3)[nH]c3ccccc23)C1 (stereo unspecified)	32	24	–	–	–	–	–	–
37	52	37	CCOC(=O)C1CCN(C(=S)Sc2c(-c3ccc(Br)cc3)[nH]c3ccc(C)cc23)CC1	68	34	–	–	–	–	–	–
30	28	29	Clc1ccc(Oc2c(-c3ccc(Cl)cc3)[nH]c3ccc(Br)cc23)cc1	35	26	–	–	–	–	–	–
37	55	27	O=C(Nc1c(-c2ccccc2)[nH]c2ccc(Cl)cc12)c1cc2ccccc2oc1=O	66	45	–	–	–	–	–	–
7	8	8	Fc1cccc2c(Oc3ccc(Cl)cc3)c(-c3ccc(Cl)cc3)[nH]c12	8	7	–	–	–	–	–	–
23	31	26	Brc1ccc(/N=N/c2c(-c3ccc(Br)cc3)[nH]c3ccccc23)cc1	30	24	–	–	–	–	–	–
31	35	20	S=C(Sc1c(-c2ccc(Br)cc2)[nH]c2ccccc12)N1CCOCC1	43	32	–	–	–	–	–	–
31	28	40	CCN(CC)C(=S)Sc1c(-c2ccccc2)[nH]c2ccc(Br)cc12	36	26	–	–	–	–	–	–
42	46	65	Cc1ccc2[nH]c(-c3ccc(Cl)cc3)c(-n3nc(C)cc3C)c2c1	43	50	–	–	–	–	–	–
29	34	37	OC1CCCN(C(=S)Sc2c(-c3ccc(Br)cc3)[nH]c3ccc(Cl)cc23)C1 (stereo unspecified)	39	31	–	–	–	–	–	–
34	36	27	CCOC(=O)C1CCN(C(=S)Sc2c(-c3ccc(Br)cc3)[nH]c3ccccc23)CC1	35	36	–	–	–	–	–	–
26	33	33	Clc1ccc(/N=N/c2c(-c3ccc(Br)cc3)[nH]c3ccccc23)cc1	33	31	–	–	–	–	–	–
61	84	> 100	Cc1cc(C)n(-c2c(-c3ccccc3)[nH]c3ccccc23)n1	84	67	–	–	–	–	–	–
37	48	32	O=C(COc1ccc(Cl)cc1)Nc1c(-c2ccccc2)[nH]c2ccccc12	66	38	–	–	–	–	–	–
22	24	14	Fc1ccc2[nH]c(-c3ccc(Cl)cc3)c(Oc3ccc(Cl)cc3)c2c1	20	22	–	–	–	–	–	–
27	34	28	Clc1ccc(Sc2c(-c3ccc(Cl)cc3)[nH]c3ccc(Cl)cc23)cc1	28	31	–	–	–	–	–	–

GI50 (A549 [1]) [µM]	GI50 (SK-MEL-28 [2]) [µM]	GI50 (B16-F10) [µM]	SMILES	GI50 [3] [µM]	GI50 (Hs 683) [µM]	Activity (SK-MEL-28 [4]) [%]	Activity (A549 [5])	Activity (SK-MEL-28 [6])	Activity (SK-MEL-28 [7])	Activity (A549 [8])	Activity (A549 [9]) [%]
25	28	29	Clc1ccc(Oc2c(-c3ccc(Cl)cc3)[nH]c3ccccc23)cc1	25	28	–	–	–	–	–	–
40	35	36	Cc1cc(C)n(-c2c(-c3cccs3)[nH]c3ccc(Cl)cc23)n1	32	32	–	–	–	–	–	–
59	57	31	COc1ccc2[nH]c(-c3ccc(Cl)cc3)c(Oc3ccc(Cl)cc3)c2c1	50	54	–	–	–	–	–	–
38	80	73	Cc1cc(C)n(-c2c(-c3cccs3)[nH]c3ccccc23)n1	90	58	–	–	–	–	–	–
26	26	35	Clc1ccc(Sc2c(-c3ccc(Br)cc3)[nH]c3ccccc23)cc1	24	25	–	–	–	–	–	–
34	39	21	CCOC(=O)C1CCN(C(=S)Sc2c(-c3ccc(Br)cc3)[nH]c3ccc(Cl)cc23)CC1	33	36	–	–	–	–	–	–
27	34	28	Clc1ccc(Sc2c(-c3ccc(Cl)cc3)[nH]c3ccccc23)cc1	28	31	10	inactive	inactive	inactive	inactive	30
29	31	39	Cc1cc(C)n(-c2c(-c3ccccc3)[nH]c3ccc(F)cc23)n1	47	32	–	–	–	–	–	–
22	29	33	CCN(CC)C(=S)Sc1c(-c2ccc(Br)cc2)[nH]c2ccc(Br)cc12	9	22	–	–	–	–	–	–
38	67	44	O=C(Nc1c(-c2ccccc2)[nH]c2ccccc12)C12CC3CC(CC(C3)C1)C2	38	69	–	–	–	–	–	–
9	13	22	Cc1onc(-c2c(F)cccc2Cl)c1C(=O)Nc1c(-c2ccccc2)[nH]c2ccccc12	24	15	–	–	–	–	–	–
30	30	35	O=C(CSCc1ccccc1)Nc1c(-c2ccccc2)[nH]c2ccccc12	47	33	–	–	–	–	–	–
28	28	20	CCOC(=O)c1ccc2[nH]c(-c3ccc(Cl)cc3)c(Oc3ccc(Cl)cc3)c2c1	35	24	–	–	–	–	–	–
10	19	10	Clc1ccc(Oc2c(-c3ccc(Cl)cc3)[nH]c3ccc(Cl)cc23)cc1	13	13	–	–	–	–	–	–
72	78	50	CCOC(=O)C1CCN(C(=S)Sc2c(-c3ccc(Br)cc3)n(C)c3ccccc23)CC1	> 100	85	–	–	–	–	–	–
26	33	40	Cc1ccc2[nH]c(-c3ccccc3)c(-n3nc(C)cc3C)c2c1	10	29	–	–	–	–	–	–
